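Growth conditions: 96-well plates. Treatment: test compound, 48 hours, 5 concentrations. Analysis: linear interpolation between bracketing concentrations; unreached endpoints set to highest concentration. The concentration for 50% growth inhibition is given as GI50. At the TGI there is no net growth.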
How the values were obtained:
Assay in all cases: DTP human tumour cell line panel, 48 h
UACC-257 melanoma = tested on: UACC-257 melanoma
SF-295 CNS = tested on: SF-295 CNS
A549 NSCLC = tested on: A549 NSCLC
ACHN renal = tested on: ACHN renal
SK-MEL-5 melanoma = tested on: SK-MEL-5 melanoma
RXF 393 renal = tested on: RXF 393 renal
SF-268 CNS = tested on: SF-268 CNS
SR leukemia = tested on: SR leukemia

Row | Structure (SMILES) | GI50 (UACC-257 melanoma) [µM] | TGI (UACC-257 melanoma) [µM] | GI50 (SF-295 CNS) [µM] | TGI (SF-295 CNS) [µM] | GI50 (A549 NSCLC) [µM] | TGI (A549 NSCLC) [µM] | GI50 (ACHN renal) [µM] | TGI (ACHN renal) [µM] | GI50 (SK-MEL-5 melanoma) [µM] | TGI (SK-MEL-5 melanoma) [µM] | GI50 (RXF 393 renal) [µM] | TGI (RXF 393 renal) [µM] | GI50 (SF-268 CNS) [µM] | TGI (SF-268 CNS) [µM] | GI50 (SR leukemia) [µM] | TGI (SR leukemia) [µM]
1 | COc1ccc2c(c1)N(CCO)C1=C(C(=O)OC1)C2c1cccc(Br)c1 (stereo not given) | 0.034 | 40.7 | 0.0319 | 1.52 | 0.113 | 19.6 | 0.0824 | > 100 | 0.0407 | 0.585 | 0.0482 | 71 | 0.0864 | 21.3 | 0.0826 | 55.7
2 | CCOCC[P+](c1ccccc1)(c1ccccc1)c1ccccc1 | 6.86 | 49.6 | 20.4 | 78.6 | 16.4 | 87.8 | 35.8 | > 100 | 10.1 | 25 | – | – | 27.3 | > 100 | 12.1 | > 100
3 | COc1ccc(C2SC(C)C(=O)N2NC(=O)C(O)c2ccccc2)cc1 (stereo not given) | > 100 | > 100 | > 100 | > 100 | > 100 | > 100 | > 100 | > 100 | > 100 | > 100 | > 100 | > 100 | > 100 | > 100 | 63 | > 100
4 | Clc1cccc(Cc2cn3cc(-c4ccccc4)nc3s2)c1 | 10.3 | > 100 | – | – | 3.93 | > 100 | 2.77 | > 100 | 2.67 | > 100 | 15.1 | 40.4 | 12.8 | > 100 | 36.5 | > 100
5 | COc1ccc(/C=C2\CCCC3=C2N=C2SC=NN2C3c2ccc(OC)c(OC)c2)cc1OC (stereo not given) | 10.5 | > 100 | 32.7 | > 100 | 30.5 | > 100 | 7.71 | > 100 | 16.4 | > 100 | 4.91 | 24.3 | 19.9 | > 100 | 5.65 | 66.1
6 | CN(C)CCOc1cccc(NC2=C(Cl)C(=O)C(Nc3cccc(OCCN(C)C)c3)=C(Cl)C2=O)c1 | 0.765 | 2.03 | 2.36 | 5.92 | 2.19 | 3.98 | 0.219 | 0.465 | 0.792 | 2.04 | 0.358 | 1.21 | 1.7 | 3.48 | 0.218 | 0.783
7 | O=C(O)C#Cc1ccc([N+](=O)[O-])cc1 | – | > 100 | – | > 100 | – | > 100 | – | > 100 | – | > 100 | – | > 100 | – | > 100 | – | > 100
8 | O=C(Nc1cc(Cl)cc(Cl)c1)c1ccc(NC2=C(Cl)C(=O)N(Cc3ccccc3)C2=O)cc1 | 11.5 | 27.1 | 2.49 | 13.6 | 10.8 | 32.4 | 1.82 | 7.77 | 1.57 | 3.19 | – | – | 2.55 | 7.46 | 1.51 | 4.81
9 | CCCNNC(=O)c1ccc(CNC(=O)/C=C/c2ccccc2)cc1 | 0.15 | – | 0.164 | 0.596 | 0.31 | > 100 | 0.143 | 0.592 | 0.102 | 0.262 | 0.18 | 0.501 | 0.316 | – | 0.18 | > 100
10 | Nc1nn(C(=O)Nc2ccc(Cc3ccccc3)cc2)c2ccccc12 | 10 | 50.9 | 0.53 | > 100 | 12.9 | 48.6 | 1.69 | 33.4 | 2.22 | 8.64 | 22.2 | 58.2 | 4.66 | 32.3 | 0.0153 | 0.0822
11 | C(#Cc1ccccc1C#Cc1ccccn1)c1ccc(OCCCCCCOc2ccc(C#Cc3ccccc3C#Cc3ccccn3)cc2)cc1 | 5.92 | 12.7 | 1.32 | 5.08 | 5.72 | 13.8 | 1.2 | 7.95 | 1.73 | 7.26 | 6.91 | 13.6 | 2.52 | 10.8 | 2.45 | 19.4
12 | N=C(N)c1ccc(-c2ccc(-c3ccco3)o2)cc1F | 1.59 | 3.08 | 1.67 | 3.81 | 3.04 | 10.6 | 1.84 | 3.81 | 1.64 | 3.04 | 1.62 | 3.69 | 2.9 | 10.4 | 1.97 | 5.4
13 | Cc1cc(Cl)ccc1Nc1nc(C(F)(F)F)ccc1C(=O)N/N=C/c1ccc(F)cc1 | 1.33 | 3.67 | 0.71 | 3.63 | 2.08 | 6.01 | 2.48 | 10.8 | 1.58 | 3.13 | – | – | 1.14 | 5.64 | 0.863 | 3.62
14 | COc1cc2c(/C=C3/C(=O)Nc4c3ccc3ccccc43)c(Cl)[nH]c2cc1C | 0.316 | > 50 | 0.00761 | 0.0237 | 0.0443 | 0.778 | 0.0261 | 6.92 | 0.103 | 0.284 | 0.0999 | 33.4 | 0.0218 | > 14.6 | < 0.005 | < 0.005
15 | COc1ccc(OC)c2c3c(ncc12)-c1cc2c(cc1C3)OCO2 | 38.5 | > 100 | 27 | > 100 | > 100 | > 100 | 2.97 | > 100 | 22.1 | > 100 | > 100 | > 100 | – | – | 4.22 | > 100
